Columns and labels:
HTN-BRD4 = biological target: T1, HTN-BRD4 (Homo sapiens, UniProt O60885); assay: Pulse-chase assay (HTN-BRD4 engagement in cells); assay type: cell-based; conditions: 5 μM, within 15 mins treatment, HEK293T HTN-BRD4:fOGT 20:1
T1 construct: HaloTag fragment; expressed in transfected cells; host or cells: HEK293T
Method: For HTN-BRD4, as the OGTAC-1 to 3 were designed to be irreversibly linked to it, we developed a pulse-chase assay. […] All of three OGTACs efficiently reached HTN-BRD4, fully occupied the protein within 4 h. OGTAC 1 ranked first among three OGTACs, achieving […] 90% engagement within 15 mins treatment.
1×10^5 HEK293T cells were seeded in each well of 12 well plate. After cells attached, transfection reagents and plasmids were prepared and added in DMEM. After 24 h transfection, media were replaced by fresh warm complete media with DMSO or compounds. After certain time of OGTACs treatment, media in wells were replaced by fresh warm media with 5 μM rhodamine ligand. The cells were incubated in 37° C.′ for 15 mins. Then, media were aspirated and 100 μL IP lysis buffer (Thermo Scientific 87788) supplemented with 20 μM OGA inhibitor (Thiamet G, Bidepharm BD571819) and 100X protease inhibitor (MedChemExpress. HY-K0010) (referred as complete IP lysis buffer in the later paragraph) was added to each well. The lysate was incubated on ice for 20 min, spun down at 14,000 RPM at 4° C. for 15 mins, and the supernatant were collected for bicinchoninic acid (BCA) assay and normalized to a final 2 mg/mL. […] After running, in gel fluorescence at rhodamine channel (545/575 nm) was analysed by Bio-Rad ChemiDoc MP Imaging System. […]

HTN-BRD4 and 0tfOGT = biological target: T2, HTN-BRD4 and 0tfOGT (Homo sapiens, UniProt O60885+P62942, F37V); assay: Washout / reversibility study, HTN-BRD4:0tfOGT; assay type: cell-based; conditions: 500 nM 4 h pretreatment, then fresh media
T2 construct: HaloTag fragment; 0TPR(463-1046)-; expressed in transfected cells; host or cells: HEK293T
T2 sequence (P62942 whole entry F37V, stated change not applied, other chains not shown, the tested form may be a part): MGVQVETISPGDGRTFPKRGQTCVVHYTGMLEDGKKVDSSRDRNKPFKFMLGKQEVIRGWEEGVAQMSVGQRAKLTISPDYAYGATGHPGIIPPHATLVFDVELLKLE
Method: FIGS. 7A-7E: Specificity and reversibility of OGTAC strategy. […] (B), Constructs of fOGT with 13.5 (rounded to 13) TPR and 0TPR-fOGT (0tfOGT). (C). […] (D), Dose-dependent O-GlcNAcylation profile of HTN-BRD4 by OGTAC-4 treatment. HEK293T cells expressing HTN-BRD4:0tfOGT=1:0.05 were treated with an increasing concentration of OGTAC-4 for 4 h. Then, the O-GlcNAcylation level of HTN-BRD4 was assessed by immunoblot after IP using BRD4 antibody. All quantifications are shown as mean±s.e.m. of n=3 biologically independent experiments. (E), Reversible effect of OGTAC-4 on HTN-BRD4 can be achieved by addition of AP1867. HEK293T cells expressing HTN-BRD4:0tfOGT=1:0.05 were pretreated with OGTAC-4 (500 nM) or DMSO for 4 h, and culturing media were replaced by fresh media with DMSO or AP1867 (50 μM) for the indicated time. The quantifications in right panel were conducted by the normalizing the fold-change (OGTAC-4/DMSO) for each post-washout time point to the value of 4 h pre-treatment. All quantifications are shown as mean±s.e.m. of 3 independent biological repeats. Statistical significance was calculated with ordinary one-way ANOVA comparing samples with different transfection conditions or OGTAC-treatment. ns, p≥0.05; *p<0.05; **p<0.01; ***p<0.001; ****p<0.0001.
To assess the potential application of our OGTAC strategy in downstream biological studies, we investigated the reversibility of OGTACs. […] Additionally. the O-GlcNAc level of BRD4 returned to baseline after 6 hours of AP1867 treatment, confirming the reversibility of the induction effect (FIG. 7E).
For each IP reaction, 2.2×10^6 HEK293T cells were seed in 10 cm dish. After cells attached, transfection reagents and plasmids were prepared and added in DMEM. After 24 h transfection, media were replaced by fresh warm complete media with DMSO or probes. For washout study, after 4 h treatment, media with DMSO or OGTAC-4 (500 nM) were replaced by fresh media with DMSO or AP1867 (50 μM) for further incubation. After certain time of OGTACs treatment, cells were collected by cold PBS and lysed by 200 μL complete IP lysis buffer. […]

CC[C@H](C(=O)N1CCCC[C@H]1C(=O)O[C@H](CCc1ccc(OC)c(OC)c1)c1cccc(OCC(=O)NCCOCCOCCCCCCCl)c1)c1cc(OC)c(OC)c(OC)c1 [OGTAC-1, (R)-1-(3-(2-((2-(2-((6-chlorohexyl)oxy)ethoxy)ethyl)amino)-2-oxoethoxy)phenyl)-3-(3,4-dimethoxyphenyl)propyl (S)-1-((S)-2-(3,4,5-trimethoxyphenyl)butanoyl) piperidine-2-carboxylate]
engagement of HTN-BRD4 (HTN-BRD4): 90%

CC[C@H](C(=O)N1CCCC[C@H]1C(=O)O[C@H](CCc1ccc(OC)c(OC)c1)c1cccc(OCC(=O)NCCCCCCNC(=O)C[C@@H]2N=C(c3ccc(Cl)cc3)c3c(sc(C)c3C)-n3c(C)nnc32)c1)c1cc(OC)c(OC)c(OC)c1 [OGTAC-4, (R)-1-(3-(2-((6-(2-((S)-4-(4-chlorophenyl)-2,3,9-trimethyl-6H-thieno[3,2-f[]8 1,2,4]triazolo[4,3-a][1,4]diazepin-6-yl)acetamido)hexyl)amino)-2-oxoethoxy)phenyl)-3-(3,4-dimethoxyphenyl)propyl (S)-1-((S)-2-(3,4,5-trimethoxyphenyl)butanoyl)piperidine-2-carboxylate]
O-GlcNAc induction and ternary complex formation after washout (HTN-BRD4 and 0tfOGT): persisted post-washout

From patent publication US20250035641A1, “COMPOSITIONS AND METHODS RELATED TO PROTEIN LABELING” (The Chinese University of Hong Kong, priority 2023, published 2025)
